Experimental data as given in the supplement of paper PMC10307832.

Columns and labels:
Assay in all cases: relative viability (nuclei count vs DMSO), 5 days (fraction); higher = more cells survive
[1] = test system: UMC-11
Method in brief: (§1)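 Lung cancer cell lines were pin-tool dosed in 1536-well plates on the day after seeding, with either a lone drug or a fixed anchor-drug dose plus five library-drug doses (not always all listed) in √10 steps. Nuclei were counted on 4× images after 5 days. Relative viability is the ratio of treated-well to vehicle-well nuclei counts, with each value a median of duplicate plates.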

[2] = test system: NCI-H1993
Method in brief: as §1

[3] = test system: NCI-H1648
Method in brief: as §1

[4] = test system: NCI-H23
Method in brief: as §1

[5] = test system: NCI-H1355
Method in brief: as §1

[6] = test system: NCI-H322M
Method in brief: as §1

[7] = test system: LCLC-97TM1
Method in brief: as §1

[8] = test system: IA-LM
Method in brief: as §1

[9] = test system: EBC-1
Method in brief: as §1

[10] = test system: NCI-H1703
Method in brief: as §1

[11] = test system: NCI-H1299
Method in brief: as §1

[12] = test system: A549
Method in brief: as §1

[13] = test system: NCI-H596
Method in brief: as §1

[14] = test system: Calu-6
Method in brief: as §1

With `COc1nc(C)cnc1NS(=O)(=O)c1cccnc1-c1ccc(-c2nnco2)cc1` [Zibotentan] + CC(=O)c1c(C)c2cnc(Nc3ccc(N4CCNCC4)cn3)nc2n(C2CCCC2)c1=O [Palbociclib] (partner 0.5 µM) the relative viability ([1]; first compound 0.08 µM) was 0.35, the relative viability ([1]; first compound 0.253 µM) was 0.323 and the relative viability ([1]; first compound 0.8 µM) was 0.363. For the same compound, the relative viability ([1]; first compound 2.53 µM) was 0.323, the relative viability ([2]; first compound 0.08 µM) was 0.661 and the relative viability ([2]; first compound 0.253 µM) was 0.712. For the same compound, the relative viability ([2]; first compound 0.8 µM) was 0.537, the relative viability ([2]; first compound 2.53 µM) was 0.662 and the relative viability ([3]; first compound 0.08 µM) was 0.274. It also gave a relative viability ([3]; first compound 0.253 µM) of 0.276, a relative viability ([3]; first compound 0.8 µM) of 0.312 and a relative viability ([3]; first compound 2.53 µM) of 0.259. For the same compound, the relative viability ([4]; first compound 0.08 µM) was 0.586, the relative viability ([4]; first compound 0.253 µM) was 0.496 and the relative viability ([4]; first compound 0.8 µM) was 0.53. For the same compound, the relative viability ([4]; first compound 2.53 µM) was 0.527, the relative viability ([5]; first compound 0.08 µM) was 0.407 and the relative viability ([5]; first compound 0.253 µM) was 0.418. The relative viability ([5]; first compound 0.8 µM) was 0.388, the relative viability ([5]; first compound 2.53 µM) was 0.435 and the relative viability ([6]; first compound 0.08 µM) was 0.465. It also gave a relative viability ([6]; first compound 0.253 µM) of 0.408, a relative viability ([6]; first compound 0.8 µM) of 0.49 and a relative viability ([6]; first compound 2.53 µM) of 0.521. For the same compound, the relative viability ([7]; first compound 0.08 µM) was 0.236, the relative viability ([7]; first compound 0.253 µM) was 0.247 and the relative viability ([7]; first compound 0.8 µM) was 0.228. For the same compound, the relative viability ([7]; first compound 2.53 µM) was 0.253.

With `CCN(CC)CCCCNc1ncc2cc(-c3cc(OC)cc(OC)c3)c(NC(=O)NC(C)(C)C)nc2n1` + CS(=O)(=O)CCNCc1ccc(-c2ccc3ncnc(Nc4ccc(OCc5cccc(F)c5)c(Cl)c4)c3c2)o1 [Lapatinib] (partner 2 µM) the relative viability ([8]; first compound 0.01 µM) was 0.805, the relative viability ([8]; first compound 0.03162 µM) was 0.644 and the relative viability ([8]; first compound 0.1 µM) was 0.917. It also gave a relative viability ([8]; first compound 0.3162 µM) of 0.793, a relative viability ([8]; first compound 1 µM) of 1.05 and a relative viability ([9]; first compound 0.01 µM) of 0.228. For the same compound, the relative viability ([9]; first compound 0.03162 µM) was 0.231, the relative viability ([9]; first compound 0.1 µM) was 0.209 and the relative viability ([9]; first compound 0.3162 µM) was 0.217. For the same compound, the relative viability ([9]; first compound 1 µM) was 0.208, the relative viability ([1]; first compound 0.01 µM) was 1.18 and the relative viability ([1]; first compound 0.03162 µM) was 1.04. It also gave a relative viability ([1]; first compound 0.1 µM) of 1.1, a relative viability ([1]; first compound 0.3162 µM) of 1.11 and a relative viability ([1]; first compound 1 µM) of 0.94. For the same compound, the relative viability ([10]; first compound 0.01 µM) was 0.912, the relative viability ([10]; first compound 0.03162 µM) was 0.819 and the relative viability ([10]; first compound 0.1 µM) was 1.3. It also gave a relative viability ([10]; first compound 0.3162 µM) of 1.35, a relative viability ([10]; first compound 1 µM) of 0.774 and a relative viability ([2]; first compound 0.01 µM) of 0.85. For the same compound, the relative viability ([2]; first compound 0.03162 µM) was 0.719, the relative viability ([2]; first compound 0.1 µM) was 0.774 and the relative viability ([2]; first compound 0.3162 µM) was 0.785. It also gave a relative viability ([2]; first compound 1 µM) of 0.738, a relative viability ([11]; first compound 0.01 µM) of 1 and a relative viability ([11]; first compound 0.03162 µM) of 0.977. The relative viability ([11]; first compound 0.1 µM) was 0.995, the relative viability ([11]; first compound 0.3162 µM) was 1.05 and the relative viability ([11]; first compound 1 µM) was 0.912. For the same compound, the relative viability ([4]; first compound 0.01 µM) was 1.09, the relative viability ([4]; first compound 0.03162 µM) was 1.12 and the relative viability ([4]; first compound 0.1 µM) was 1.36. For the same compound, the relative viability ([4]; first compound 0.3162 µM) was 1.1, the relative viability ([4]; first compound 1 µM) was 0.961 and the relative viability ([12]; first compound 0.01 µM) was 1.11. For the same compound, the relative viability ([12]; first compound 0.03162 µM) was 0.957, the relative viability ([12]; first compound 0.1 µM) was 1.45 and the relative viability ([12]; first compound 0.3162 µM) was 0.972. For the same compound, the relative viability ([12]; first compound 1 µM) was 0.875, the relative viability ([5]; first compound 0.01 µM) was 1 and the relative viability ([5]; first compound 0.03162 µM) was 0.897. For the same compound, the relative viability ([5]; first compound 0.1 µM) was 1.2, the relative viability ([5]; first compound 0.3162 µM) was 1.19 and the relative viability ([5]; first compound 1 µM) was 0.924. For the same compound, the relative viability ([6]; first compound 0.01 µM) was 0.549, the relative viability ([6]; first compound 0.03162 µM) was 0.584 and the relative viability ([6]; first compound 0.1 µM) was 0.598. It also gave a relative viability ([6]; first compound 0.3162 µM) of 0.619, a relative viability ([6]; first compound 1 µM) of 0.528 and a relative viability ([7]; first compound 0.03162 µM) of 0.958. It also gave a relative viability ([7]; first compound 0.1 µM) of 1.13, a relative viability ([7]; first compound 0.3162 µM) of 0.923 and a relative viability ([7]; first compound 1 µM) of 1.12. The relative viability ([13]; first compound 0.01 µM) was 0.967, the relative viability ([13]; first compound 0.03162 µM) was 1.04 and the relative viability ([13]; first compound 0.1 µM) was 1.11. It also gave a relative viability ([13]; first compound 0.3162 µM) of 0.977, a relative viability ([13]; first compound 1 µM) of 0.854 and a relative viability ([14]; first compound 0.01 µM) of 1.09. It also gave a relative viability ([14]; first compound 0.03162 µM) of 1.15, a relative viability ([14]; first compound 0.1 µM) of 1.31 and a relative viability ([14]; first compound 0.3162 µM) of 1.24. The relative viability ([14]; first compound 1 µM) was 1.02.
